In US6248768A, “Benzimidazole derivatives and pharmacologically acceptable salts thereof” (Taiho Pharmaceutical Co., Ltd., priority 1997, dated 2001):

Key:
[1] = system: IL-4 production by CD4^+ T cells; experiment: Interleukin-4 (IL-4) Production Inhibitory Activity; format: cell-based; conditions: 24 h; mouse spleen CD4^+ T cells; IL-4 in supernatant by ELISA after 1 day; read-out: IL-4 production inhibition IC50
Procedure: Interleukin-4 (IL-4) Production Inhibitory Activity
This test was carried out in accordance with the method of Shelby et al. (J. Allergy Clin. Immunol., Vol. 100, No. 4, 511-519 (1997)). That is, CD4^+ T cells were purified from mouse spleen cells and suspended in 10% FCS-containing RPMI 1640 culture medium, and the cell suspension was inoculated into wells of a 24 well culture plate, which had been coated with anti-rat IgG, at a density of 3×10^6 cells per well. Anti-mouse CD3 antibody and anti-mouse CD28 antibody were added thereto, and the cells were cultured at 37° C. for 3 days in an atmosphere of 5% CO2. The thus grown cells were recovered, washed three times with HBSS (Hank's balanced salt solution) and then suspended in 10% FCS-containing RPMI 1640 culture medium. The cell suspension was inoculated into wells of a 24 well culture plate at a density of 1×10^6 cells per well, mixed with IL-2 and cultured for additional 3 days. The resulting cells were recovered, washed three times with HBSS and then suspended in 10% FCS-containing RPMI 1640 culture medium. The cell suspension was inoculated into wells of a 24 well culture plate, which had been coated with anti-rat IgG, at a density of 2×10^6 cells per well, anti-mouse CD3 antibody and anti-mouse CD28 antibody were added thereto, and the cells were again cultured for 1 day. The culture supernatant was recovered from each well to measure the amount of produced IL-4 by ELISA. Each drug to be tested was treated at the time of the second addition of anti-mouse CD3 antibody and anti-mouse CD28 antibody to calculate its inhibition percentage based on the control IL-4 production by the addition of the solvent alone, and IC50 (50% inhibition concentration) of each drug to be tested was calculated based on the regression line.

PDE(IV) = experiment: Phosphodiesterase IV (PDE (IV)) Inhibitory Activity; format: biochemical; conditions: rat brain PDE(IV); 3H-cAMP 1 μM; 37° C., 10 minutes; read-out: PDE(IV) inhibition IC50
Procedure: Phosphodiesterase IV (PDE (IV)) Inhibitory Activity
Purification of PDE (IV) and measurement of its activity were carried out by partially modifying the method of Saeki et al. (Biochem. Pharmacol., Vol. 46, 833-839, 1993). That is, PDE(IV) was purified by centrifuging rat brain homogenate at 105,000×g, applying the resulting supernatant to a Q-Sepharose column and then eluting the protein with a density gradient of 0 to 0.5 M NaCl.
Activity of PDE(IV) was measured by the following two step procedure. Using 3H-cAMP (1 μM in final concentration) as the substrate, the reaction was carried out at 37° C. for 10 minutes in a reaction solution containing tris(hydroxyl)aminomethane (50 mM, pH B8.0), EGTA (0.1 mM) and MgCl2 (0.1 mM) and then the reaction was stopped by incubating the reaction solution at 95° C. for 5 minutes. The thus formed 5'-AMP was hydrolyzed with 5'-nucleotidase, and AG1 X-8 resin was added thereto to effect adsorption of unreacted CAMP. After centrifugation, 3H-adenosinewas counted using a scintillation counter.

[2] = system: Mouse ear edema reaction (egg albumin-induced); experiment: Ear Edema Reaction Inhibitory Activity in Mice; format: in vivo, BALB/c mice; conditions: oral, 1 hour before induction, ear thickness 1 hour after induction
Procedure: Ear Edema Reaction Inhibitory Activity in Mice [Test Inflammation]
This test was test was carried out in accordance with the method of Sawada et al. (Clin. Exp. Allergy, Vol. 27, pp. 225-231, 1996). Each of BALB/c mice was immunized by the intraperitoneal injection of 1 μg of egg albumin which had been adsorbed to 1 mg of ALUM. After 14 days of the immunization, ear edema reaction was induced by intracutaneous injection of 1 μg of egg albumin into mouse earlobe. Ear edema (×10^2 mm) was calculated by measuring thickness of the ear before and 1 hour after the induction with a dial thickness gage (Peacok). Each of the drugs to be tested (compounds 1 and 2) was suspended in 0.5% hydropropylmethylcellulose (HPMC) solution and orally administered 1 hour before the reaction induction. Ear edema caused by the antigen was calculated by subtracting ear edema after respective time of induction in the case of the same treatment of normal mice, and the ear edema inhibition ratio (%) of the drugs to be tested was calculated based on the solvent-administered (control) group.

[3] = system: Airway reactivity acceleration (antigen-induced); experiment: Antigen-Induced Airway Reactivity Acceleration Inhibitory Activity in Mice [Test on Chronic Inflammation]; format: in vivo, BALB/c mice; conditions: oral, once a day for 10 days, acetylcholine 30 μg/animal i.v.
Procedure: Antigen-Induced Airway Reactivity Acceleration Inhibitory Activity in Mice [Test on Chronic Inflammation]
The model for this test was prepared out in accordance with the method of Nagai et al. (Life Sciences, Vol. 54, pp. 471-475, 1994). Each of BALB/c mice was immunized by the intraperitoneal injection of 1 μg of egg albumin which had been adsorbed to 1 mg of ALUM. After 14 days of the immunization, each animal was exposed to 1% egg albumin solution using an ultrasonic nebulizer, and this treatment was repeated three times at 3 day intervals. After 24 hours of the final exposure, the airway contraction reaction against intravenously injected acetylcholine (30 μg/animal) was measured as overflow volume (×0.01 ml) by the modified method of Konzett and Rossler under pentobarbital anesthesia. Each of the drugs to be tested (compounds 1 and 2) was suspended in 0.5% HPMC solution and orally administered once a day for a total of 10 days starting from the day before the antigen exposure until the day of final exposure. Accelerated quantity of the airway contraction reaction caused by the antigen exposure was calculated by subtracting the contraction reaction against intravenously injected acetylcholine in the case of the same treatment of normal mice, and the airway reactivity acceleration inhibition ratio (%) of the drugs to be tested was calculated based on the solvent-administered (control) group.

IL-4 production = conditions: in words, background art; cited from earlier work

Structure (SMILES) | IC50 [1] [nM] | IC50 (PDE(IV)) [nM] | Mouse ear edema reaction inhibition ([2]; 30 mg/kg) [%] | Airway reactivity acceleration inhibition ([3]; 30 mg/kg) [%] | further results
COc1ccc(-c2nc3ccc(-n4cncn4)cc3[nH]2)cc1OC(C)C [Compound 1, 2-(3-isopropoxy-4-methoxyphenyl)-5-(1,2,4-triazol-1-yl)benzimidazole] | 4300 | 20 | 60 |  | Airway reactivity acceleration inhibition ([3]; 10 mg/kg): 58%
COc1ccc(-c2nc3ccc(-n4cncn4)cc3[nH]2)cc1OC1CCCC1 [Compound 2, 2-(3-cyclopentyloxy-4-methoxyphenyl)-5-(1,2,4-triazol-1-yl)benzimidazole] |  |  | 78 | 47 | 
COc1ccc(-c2nc3cc(-n4cncn4)ccc3[nH]2)cc1OCC1CC1 [Compound 11] | 5500 | 1600 |  |  | 
COc1ccc(-c2nc3ccc(-n4cncn4)cc3[nH]2)cc1OC1C=CCCC1 (stereo not drawn) [Compound 14, 2-[3-(2-cyclohexenyloxy)-4-methoxyphenyl]-5-(1,2,4-triazol-1-yl)benzimidazole] | 6100 | 540 |  |  | 
COc1ccc(-c2nc3cc(-n4cncn4)ccc3[nH]2)cc1OC/C=C/c1ccccc1 [Compound 18] | 5100 | 51 |  |  | 
COc1ccc(-c2nc3cc(-n4cncn4)ccc3[nH]2)cc1OC1C=CCCCC1 (stereo not drawn) [Compound 25] | 2800 | 730 |  |  | 
COc1ccc(-c2nc3cc(-n4cncn4)ccc3[nH]2)c(OC)c1 [Control compound 2] |  |  | 17 | 30 | 
COc1ccc(-c2nc3cc(C(=O)O)ccc3[nH]2)cc1OC1CCCC1 [Control compound 4] |  |  |  | -17 | Mouse ear edema reaction inhibition ([2]; 100 mg/kg): 0%
COc1ccc(-c2nc3cc(C(=O)O)ccc3[nH]2)cc1OC1Cc2ccccc2C1 [Control compound 5] |  |  |  | -3 | Mouse ear edema reaction inhibition ([2]; 100 mg/kg): 0%
COc1ccc(/C(C)=N/OC(N)=O)cc1OC1CCCC1 [PDA-641] |  |  |  |  | IL-4 production inhibitory activity (IL-4 production): weak
